Tests used:
Assay in all cases: relative viability (nuclei count vs DMSO), 5 days (fraction); higher = more cells survive
RO-3306 + Foretinib = compound: C1=CC2=C(C=CC(=C2)C=C3C(=O)NC(=NCC4=CC=CS4)S3)N=C1 [RO-3306] + COc1cc2c(Oc3ccc(NC(=O)C4(C(=O)Nc5ccc(F)cc5)CC4)cc3F)ccnc2cc1OCCCN1CCOCC1 [Foretinib] (partner 0.25 µM)
Method in brief: (§1)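 Relative viability is defined as nuclei in treated wells over nuclei in vehicle wells. Duplicate plates were run and medians reported. Lung cancer cell lines in 1536-well plates were dosed by pin tool one day after seeding, with one drug or with a fixed anchor-drug dose plus five library-drug doses (not always all listed) in √10 steps, and nuclei were counted after 5 days.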

RO-3306 + Decitabine = compound: C1=CC2=C(C=CC(=C2)C=C3C(=O)NC(=NCC4=CC=CS4)S3)N=C1 [RO-3306] + Nc1ncn([C@H]2C[C@H](O)[C@@H](CO)O2)c(=O)n1 [Decitabine] (partner 2 µM)
Method in brief: as §1

RO-3306 + Trametinib = compound: C1=CC2=C(C=CC(=C2)C=C3C(=O)NC(=NCC4=CC=CS4)S3)N=C1 [RO-3306] + CC(=O)Nc1cccc(-n2c(=O)n(C3CC3)c(=O)c3c(Nc4ccc(I)cc4F)n(C)c(=O)c(C)c32)c1 [Trametinib] (partner 0.02 µM)
Method in brief: as §1

RO-3306 + Crizotinib = compound: C1=CC2=C(C=CC(=C2)C=C3C(=O)NC(=NCC4=CC=CS4)S3)N=C1 [RO-3306] + C[C@@H](Oc1cc(-c2cnn(C3CCNCC3)c2)cnc1N)c1c(Cl)ccc(F)c1Cl [Crizotinib] (partner 1 µM)
Method in brief: as §1

| Cell Line | relative viability (RO-3306 + Foretinib; first compound 0.01 µM) | relative viability (RO-3306 + Foretinib; first compound 0.03162 µM) | relative viability (RO-3306 + Foretinib; first compound 0.1 µM) | relative viability (RO-3306 + Foretinib; first compound 0.3162 µM) | relative viability (RO-3306 + Foretinib; first compound 1 µM) | relative viability (RO-3306 + Decitabine; first compound 0.01 µM) | relative viability (RO-3306 + Decitabine; first compound 0.03162 µM) | relative viability (RO-3306 + Decitabine; first compound 0.1 µM) | relative viability (RO-3306 + Decitabine; first compound 0.3162 µM) | relative viability (RO-3306 + Decitabine; first compound 1 µM) | relative viability (RO-3306 + Trametinib; first compound 0.01 µM) | relative viability (RO-3306 + Trametinib; first compound 0.03162 µM) | relative viability (RO-3306 + Trametinib; first compound 0.1 µM) | relative viability (RO-3306 + Trametinib; first compound 0.3162 µM) | relative viability (RO-3306 + Trametinib; first compound 1 µM) | relative viability (RO-3306 + Crizotinib; first compound 0.01 µM) | relative viability (RO-3306 + Crizotinib; first compound 0.03162 µM) | relative viability (RO-3306 + Crizotinib; first compound 0.1 µM) | relative viability (RO-3306 + Crizotinib; first compound 0.3162 µM) | relative viability (RO-3306 + Crizotinib; first compound 1 µM) |
| --- | --- | --- | --- | --- | --- | --- | --- | --- | --- | --- | --- | --- | --- | --- | --- | --- | --- | --- | --- | --- |
| PC-3 [JPC-3] | 1.01 | 1 | 1.01 | 1.07 | 1.03 | 0.84 | 0.777 | 0.82 | 0.802 | 0.817 | 0.715 | 0.697 | 0.704 | 0.694 | 0.65 | 1.03 | 0.971 | 0.965 | 1.03 | 0.951 |
| NCI-H1651 | 0.986 | 0.723 | 0.879 | 0.8 | 0.823 | 0.671 | 0.562 | 0.587 | 0.664 | 0.58 | 0.805 | 0.803 | 0.828 | 0.826 | 0.8 | 0.865 | 0.834 | 0.88 | 0.881 | 0.84 |
| NCI-H3122 | 0.987 | 0.984 | 0.94 | 0.969 | 1.09 | 0.406 | 0.345 | 0.379 | 0.461 | 0.42 | 0.241 | 0.223 | 0.26 | 0.237 | 0.227 | 0.253 | 0.262 | 0.244 | 0.244 | 0.283 |
| LC-2-ad | 0.877 | 0.804 | 0.941 | 0.967 | 0.942 | 0.869 | 0.776 | 0.743 | 0.785 | 0.759 | 0.961 | 0.848 | 0.945 | 0.908 | 0.852 | 0.404 | 0.416 | 0.397 | 0.425 | 0.368 |
| NCI-H650 | 0.989 | 0.94 | 1.01 | 1.07 | 1.02 | 0.292 | 0.33 | 0.283 | 0.259 | 0.352 | 0.981 | 0.939 | 0.921 | 1.1 | 0.941 | 0.56 | 0.648 | 0.694 | 0.691 | 0.703 |
| LXF-289 | 0.985 | 0.956 | 0.945 | 0.996 | 0.958 | 0.377 | 0.36 | 0.387 | 0.333 | 0.424 | 0.741 | 0.63 | 0.647 | 0.673 | 0.695 | 0.846 | 0.817 | 0.808 | 0.726 | 0.76 |
| HCC-78 | 0.487 | 0.568 | 0.595 | 0.564 | 0.573 | 0.674 | 0.597 | 0.657 | 0.661 | 0.692 | 0.788 | 0.697 | 0.744 | 1.02 | 0.669 | 0.357 | 0.324 | 0.369 | 0.372 | 0.335 |
| NCI-H2009 | 1.32 | 1.24 | 1.2 | 1.19 | 1.2 | 0.385 | 0.373 | 0.351 | 0.382 | 0.371 | 0.283 | 0.272 | 0.247 | 0.273 | 0.254 | 1.05 | 0.976 | 1.02 | 1.07 | 1.04 |

Reference: the supplement of paper PMC10307832
